Earlier results, collected in patent US20220202680A1, “INCREASING THE STABILITY OF AGENTS FOR TREATING KERATIN MATERIAL” (Henkel AG & Co. KGaA, priority 2019, published 2022).

Details: for solubility in water: 25° C.

solubility in water (in words) (at 25° C.)	Structure (SMILES)	solubility in water
–	O=S(=O)([O-])c1ccc(N=Nc2c(O)ccc3ccccc23)cc1.[Na+] [Acid Orange 7, sodium salt of 4-[(2-hydroxy-1-naphthyl)azo]benzene sulphonate]	more than 7 g/L
–	Nc1cc(S(=O)(=O)[O-])cc2cc(S(=O)(=O)[O-])c(N=Nc3ccccc3)c(O)c12.[Na+].[Na+] [Acid Red 33, diantrium salt of 5-amino-4-hydroxy-3-(phenylazo)-naphthalene-2,7-disulphonate]	2500 µg/mL
–	O=C([O-])c1c(Cl)c(Cl)c(Cl)c(Cl)c1-c1c2c(Br)cc(=O)c(Br)c-2oc2c(Br)c(O)cc(Br)c12.O=C([O-])c1c(Cl)c(Cl)c(Cl)c(Cl)c1-c1c2c(Br)cc(=O)c(Br)c-2oc2c(Br)c(O)cc(Br)c12.[Na+].[Na+] [Acid Red 92, disodium salt of 3,4,5,6-tetrachloro-2-(1,4,5,8-tetrabromo-6-hydroxy-3-oxoxanthen-9-yl)benzoic acid]	greater than 10 g/L
highly soluble	O=C([O-])C1=NN(c2ccc(S(=O)(=O)[O-])cc2)C(=O)C1N=Nc1ccc(S(=O)(=O)[O-])cc1.[Na+].[Na+].[Na+] (stereo not shown) [Acid Yellow 23, trisodium salt of 4,5-dihydro-5-oxo-1-(4-sulfophenyl)-4-((4-sulfophenyl)azo)-1H-pyrazole-3-carboxylic acid]	–
